Test results as given in ChEMBL document CHEMBL6074654, “Inhibitors targeting the PWWP domain-containing proteins” (Eur J Med Chem, 2024).
pIC50: −log10 of the molar value.

Legend:
[1] = system: U2OS; assay: Antiproliferative activity against human U2OS cells
[2] = target: DNA (cytosine-5)-methyltransferase 3A (Homo sapiens, UniProt Q9Y6K1); assay: Inhibition of DNMT3A (unknown origin)
[3] = target: DNA (cytosine-5)-methyltransferase 1 (Homo sapiens, UniProt P26358); assay: Inhibition of DNMT1 (unknown origin)
[4] = target: Histone-lysine N-methyltransferase, H3 lysine-36 specific (Homo sapiens, UniProt Q96L73); assay: Inhibition of NSD1-SET (unknown origin)
Sequence of Histone-lysine N-methyltransferase, H3 lysine-36 specific (Q96L73 whole entry, the tested form may be a part): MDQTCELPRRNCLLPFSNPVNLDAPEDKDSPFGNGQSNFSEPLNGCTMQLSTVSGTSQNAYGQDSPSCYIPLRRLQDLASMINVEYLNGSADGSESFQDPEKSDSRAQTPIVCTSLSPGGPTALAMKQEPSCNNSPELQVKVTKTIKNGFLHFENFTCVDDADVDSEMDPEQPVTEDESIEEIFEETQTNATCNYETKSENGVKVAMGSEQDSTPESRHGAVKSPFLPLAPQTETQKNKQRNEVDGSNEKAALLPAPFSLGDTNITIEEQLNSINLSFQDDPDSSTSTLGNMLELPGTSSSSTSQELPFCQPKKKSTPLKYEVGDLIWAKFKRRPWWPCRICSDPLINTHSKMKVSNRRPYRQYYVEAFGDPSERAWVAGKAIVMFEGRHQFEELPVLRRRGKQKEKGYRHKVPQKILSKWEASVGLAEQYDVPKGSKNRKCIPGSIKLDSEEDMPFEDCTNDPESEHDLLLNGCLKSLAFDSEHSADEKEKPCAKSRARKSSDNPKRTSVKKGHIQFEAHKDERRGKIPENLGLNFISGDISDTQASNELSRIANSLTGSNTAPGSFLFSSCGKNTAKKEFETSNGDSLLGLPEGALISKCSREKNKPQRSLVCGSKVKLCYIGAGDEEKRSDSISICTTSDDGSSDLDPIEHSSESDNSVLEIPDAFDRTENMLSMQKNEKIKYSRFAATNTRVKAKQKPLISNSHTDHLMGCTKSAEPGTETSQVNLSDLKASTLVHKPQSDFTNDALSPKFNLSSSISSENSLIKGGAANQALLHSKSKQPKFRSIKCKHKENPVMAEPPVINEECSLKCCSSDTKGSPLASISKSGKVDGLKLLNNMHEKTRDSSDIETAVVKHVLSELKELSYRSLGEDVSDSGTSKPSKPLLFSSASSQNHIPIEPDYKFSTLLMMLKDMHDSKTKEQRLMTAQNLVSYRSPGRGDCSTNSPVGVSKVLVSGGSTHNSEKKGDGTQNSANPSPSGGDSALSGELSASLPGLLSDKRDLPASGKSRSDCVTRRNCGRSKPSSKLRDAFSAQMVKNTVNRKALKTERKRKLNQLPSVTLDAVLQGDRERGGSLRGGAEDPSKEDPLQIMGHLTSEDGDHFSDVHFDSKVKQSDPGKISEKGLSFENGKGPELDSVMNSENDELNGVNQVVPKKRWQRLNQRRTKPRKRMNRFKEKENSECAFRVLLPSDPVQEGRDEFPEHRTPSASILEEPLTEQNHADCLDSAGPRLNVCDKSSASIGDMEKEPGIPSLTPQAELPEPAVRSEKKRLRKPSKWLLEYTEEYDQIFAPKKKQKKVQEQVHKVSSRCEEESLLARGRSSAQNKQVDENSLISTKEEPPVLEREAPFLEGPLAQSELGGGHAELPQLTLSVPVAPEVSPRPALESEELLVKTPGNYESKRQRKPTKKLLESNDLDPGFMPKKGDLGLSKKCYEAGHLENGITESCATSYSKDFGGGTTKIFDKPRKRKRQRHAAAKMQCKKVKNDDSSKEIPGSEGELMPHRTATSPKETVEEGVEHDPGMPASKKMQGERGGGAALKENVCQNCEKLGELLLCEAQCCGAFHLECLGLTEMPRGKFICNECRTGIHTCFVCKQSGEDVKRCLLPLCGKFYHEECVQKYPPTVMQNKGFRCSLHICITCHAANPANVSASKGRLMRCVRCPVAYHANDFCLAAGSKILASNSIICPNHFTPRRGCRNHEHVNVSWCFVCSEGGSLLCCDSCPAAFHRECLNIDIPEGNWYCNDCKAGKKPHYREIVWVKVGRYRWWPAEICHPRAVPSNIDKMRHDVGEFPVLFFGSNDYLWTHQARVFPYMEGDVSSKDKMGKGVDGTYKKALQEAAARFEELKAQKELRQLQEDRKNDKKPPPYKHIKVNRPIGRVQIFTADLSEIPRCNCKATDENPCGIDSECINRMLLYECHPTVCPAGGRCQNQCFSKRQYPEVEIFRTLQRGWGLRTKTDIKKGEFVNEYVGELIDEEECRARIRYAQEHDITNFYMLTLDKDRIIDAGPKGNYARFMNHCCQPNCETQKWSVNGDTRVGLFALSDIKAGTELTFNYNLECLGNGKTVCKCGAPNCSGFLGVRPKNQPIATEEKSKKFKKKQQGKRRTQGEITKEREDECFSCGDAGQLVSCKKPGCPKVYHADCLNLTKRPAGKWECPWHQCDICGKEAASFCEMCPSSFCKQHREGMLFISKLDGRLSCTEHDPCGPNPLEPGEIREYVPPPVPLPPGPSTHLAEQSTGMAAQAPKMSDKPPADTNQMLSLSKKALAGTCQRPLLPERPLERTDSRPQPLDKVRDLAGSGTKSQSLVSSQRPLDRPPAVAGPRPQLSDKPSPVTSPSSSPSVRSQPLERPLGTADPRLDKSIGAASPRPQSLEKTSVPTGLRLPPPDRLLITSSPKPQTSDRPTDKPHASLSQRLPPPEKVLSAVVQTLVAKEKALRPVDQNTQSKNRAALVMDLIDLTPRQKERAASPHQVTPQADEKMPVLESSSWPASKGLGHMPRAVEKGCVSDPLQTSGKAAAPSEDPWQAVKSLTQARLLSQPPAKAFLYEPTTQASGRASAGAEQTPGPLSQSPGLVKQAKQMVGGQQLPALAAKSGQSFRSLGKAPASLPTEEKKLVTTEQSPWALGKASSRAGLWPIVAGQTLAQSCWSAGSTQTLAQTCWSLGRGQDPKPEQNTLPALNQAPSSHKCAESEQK

[5] = target: T1, Histone-lysine N-methyltransferase NSD2 (Homo sapiens, UniProt O96028); assay: Inhibition of NSD2-SET domain (unknown origin)
T1 sequence (O96028 whole entry): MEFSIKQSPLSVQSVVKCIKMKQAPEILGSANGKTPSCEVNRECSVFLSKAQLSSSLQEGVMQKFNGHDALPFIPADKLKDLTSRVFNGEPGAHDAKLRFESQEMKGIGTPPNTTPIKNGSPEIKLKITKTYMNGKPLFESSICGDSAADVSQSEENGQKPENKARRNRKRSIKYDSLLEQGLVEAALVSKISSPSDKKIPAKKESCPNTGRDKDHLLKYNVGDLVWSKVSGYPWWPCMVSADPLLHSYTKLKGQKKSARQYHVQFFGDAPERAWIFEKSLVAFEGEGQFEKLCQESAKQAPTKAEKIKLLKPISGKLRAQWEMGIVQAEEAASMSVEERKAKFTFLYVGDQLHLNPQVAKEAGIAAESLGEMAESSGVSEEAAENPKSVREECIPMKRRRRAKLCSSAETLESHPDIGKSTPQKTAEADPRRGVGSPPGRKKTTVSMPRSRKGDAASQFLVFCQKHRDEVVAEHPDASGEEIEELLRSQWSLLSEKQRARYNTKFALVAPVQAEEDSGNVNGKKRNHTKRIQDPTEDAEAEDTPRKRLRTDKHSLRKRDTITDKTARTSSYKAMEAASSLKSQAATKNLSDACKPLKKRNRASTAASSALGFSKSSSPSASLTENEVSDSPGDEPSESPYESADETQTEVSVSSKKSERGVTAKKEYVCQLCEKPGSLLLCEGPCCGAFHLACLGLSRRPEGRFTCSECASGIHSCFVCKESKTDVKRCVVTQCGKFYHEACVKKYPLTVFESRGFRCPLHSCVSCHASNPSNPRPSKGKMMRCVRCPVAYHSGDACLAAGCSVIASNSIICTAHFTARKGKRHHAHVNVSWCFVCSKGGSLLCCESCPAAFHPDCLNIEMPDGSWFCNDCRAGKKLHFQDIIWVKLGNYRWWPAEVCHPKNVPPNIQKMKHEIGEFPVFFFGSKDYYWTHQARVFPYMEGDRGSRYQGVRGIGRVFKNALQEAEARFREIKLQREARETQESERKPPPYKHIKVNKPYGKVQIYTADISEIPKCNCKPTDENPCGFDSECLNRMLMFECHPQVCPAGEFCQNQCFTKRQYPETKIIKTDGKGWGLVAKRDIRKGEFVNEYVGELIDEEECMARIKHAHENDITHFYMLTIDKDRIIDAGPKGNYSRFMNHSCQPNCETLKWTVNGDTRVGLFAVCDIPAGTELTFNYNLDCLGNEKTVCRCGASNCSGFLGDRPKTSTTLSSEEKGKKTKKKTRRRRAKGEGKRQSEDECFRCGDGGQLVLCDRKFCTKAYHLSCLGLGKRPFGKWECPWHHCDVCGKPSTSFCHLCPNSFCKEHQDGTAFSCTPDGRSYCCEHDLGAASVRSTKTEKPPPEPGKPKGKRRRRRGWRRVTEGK

[6] = target: Protein cereblon/Histone-lysine N-methyltransferase NSD2 (Homo sapiens, UniProt O96028+Q96SW2); assay: PROTAC activity at CRBN/NSD2 in human VCaP cells assessed as induction of NSD2 degradation incubated for 24 hrs by immunoblot analysis; assay type: cell-based
Sequence of Protein cereblon/Histone-lysine N-methyltransferase NSD2 (Q96SW2 whole entry, one chain of several): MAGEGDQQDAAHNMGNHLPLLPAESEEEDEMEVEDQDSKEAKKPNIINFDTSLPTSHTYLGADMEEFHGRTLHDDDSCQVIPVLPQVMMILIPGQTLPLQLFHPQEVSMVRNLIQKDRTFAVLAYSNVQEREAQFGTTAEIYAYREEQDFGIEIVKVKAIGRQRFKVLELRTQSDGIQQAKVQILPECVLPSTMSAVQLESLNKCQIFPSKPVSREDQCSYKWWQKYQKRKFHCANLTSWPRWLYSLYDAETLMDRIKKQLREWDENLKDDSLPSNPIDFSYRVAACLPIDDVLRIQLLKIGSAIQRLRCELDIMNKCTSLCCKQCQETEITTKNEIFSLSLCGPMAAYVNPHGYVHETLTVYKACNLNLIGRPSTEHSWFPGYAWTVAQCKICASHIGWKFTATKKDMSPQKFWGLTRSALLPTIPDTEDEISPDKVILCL

Sequence of DNA (cytosine-5)-methyltransferase 3A (Q9Y6K1 whole entry, looked up): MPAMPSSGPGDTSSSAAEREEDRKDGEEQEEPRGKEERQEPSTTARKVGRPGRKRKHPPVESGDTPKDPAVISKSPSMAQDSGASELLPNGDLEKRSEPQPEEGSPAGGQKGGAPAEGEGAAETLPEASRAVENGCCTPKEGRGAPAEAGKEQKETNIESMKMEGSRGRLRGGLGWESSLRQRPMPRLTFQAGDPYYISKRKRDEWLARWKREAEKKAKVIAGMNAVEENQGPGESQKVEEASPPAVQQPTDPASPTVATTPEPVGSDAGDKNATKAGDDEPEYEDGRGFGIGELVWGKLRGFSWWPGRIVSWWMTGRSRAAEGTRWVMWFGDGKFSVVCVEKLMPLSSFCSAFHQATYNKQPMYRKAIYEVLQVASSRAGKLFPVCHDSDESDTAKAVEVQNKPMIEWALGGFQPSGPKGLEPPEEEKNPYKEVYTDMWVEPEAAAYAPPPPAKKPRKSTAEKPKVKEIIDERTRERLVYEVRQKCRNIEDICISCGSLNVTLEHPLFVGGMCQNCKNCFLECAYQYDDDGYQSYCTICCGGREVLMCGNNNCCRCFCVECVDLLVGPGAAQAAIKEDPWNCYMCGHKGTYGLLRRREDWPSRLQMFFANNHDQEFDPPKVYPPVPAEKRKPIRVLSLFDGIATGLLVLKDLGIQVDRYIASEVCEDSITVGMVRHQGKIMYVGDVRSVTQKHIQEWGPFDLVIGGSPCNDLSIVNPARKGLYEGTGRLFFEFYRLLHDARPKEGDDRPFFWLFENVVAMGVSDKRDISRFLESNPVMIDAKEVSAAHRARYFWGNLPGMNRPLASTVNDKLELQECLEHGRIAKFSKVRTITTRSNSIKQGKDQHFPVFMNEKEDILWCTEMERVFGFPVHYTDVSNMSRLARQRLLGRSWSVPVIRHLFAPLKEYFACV

Row | SMILES | pIC50 [2] | pIC50 [4] | further results
1 | O=C1COc2cc(C(=O)N(Cc3ccc(C(=O)Nc4ccncn4)cc3)C3CC3)ccc2N1 | – | – | pIC50 [1]: 5.92
2 | CC1=CC(=O)c2c(O)cccc2C1=O [PLUMBAGIN] | – | 5.24 | –
3 | Cc1coc2c1C(=O)C(=O)c1c-2ccc2c(C)cccc12 [TANSHINONE I] | – | 5.51 | –
4 | Cc1coc2c1C(=O)C(=O)c1c-2ccc2c1CCCC2(C)C [TANSHINONE IIA] | – | 5.85 | –
5 | Oc1cc(/C=N/Nc2nc3ccccc3s2)cc(O)c1O | 5.80 | – | –
6 | CC(C)C[C@H]1C(=O)N2CCCC2[C@]2(O)O[C@](NC(=O)[C@@H]3C=C4c5cccc6[nH]cc(c56)CC4N(C)C3)(C(C)C)C(=O)N12 (some centres not stated) | – | 5.31 | –
7 | O=C1C=CC(=O)c2ccccc21 [NAPHTHOQUINONE] | – | 5.70 | –
8 | Cc1cc(/C=C/c2ccc3cc(N(C)C)ccc3[n+]2C)c(C)n1-c1ccccc1 | – | 5.59 | –
9 | CN1C[C@H](C(=O)N[C@]2(C)C[C@@]3(O)C4CCCN4C(=O)[C@H](Cc4ccccc4)N3C2=O)C=C2c3cccc4[nH]cc(c34)C[C@H]21 (some centres not stated) | – | 5.23 | –
10 | CCCN[C@@H](CC[C@H](N)C(=O)O)C[C@@H]1O[C@@H](n2cnc3c(N)ncnc32)[C@H](O)[C@@H]1O | – | – | pIC50 [5]: 5.48
11 | N=C(N)NCCC[C@H](N)C(=O)NCCCCCCNC(=O)c1ccc(NC(=O)c2ccc(CN(C(=O)c3ccc4c(c3)OCC(=O)N4)C3CC3)cc2)cc1 | – | – | DC50 [6]: 1.2 µM
12 | C[C@H]1COC2=C1C(=O)C(=O)c1c2ccc2c1CCCC2(C)C [CRYPTOTANSHINONE] | – | 5.46 | –
13 | O=C(O)c1ccccc1-c1c2cc(I)c(=O)c(I)c-2oc2c(I)c(O)c(I)cc12 | – | 6.47 | –
14 | COc1cc(NC(C)CCCN)c2ncccc2c1 (configuration not stated) [PRIMAQUINE] | – | 5.74 | –

Second part, led by results:

Row | pIC50 [2] | SMILES | pIC50 [4] | further results
15 | 6.52 | c1ccc2c(NCCNc3ncnc4cc(OCC5CCN(CCNc6ccnc7ccccc67)CC5)ccc34)cccc2c1 | – | pIC50 [3]: 4.70
16 | 4.44 | COc1ccc(Cl)cc1C(=O)NCCc1ccc(O)cc1 | – | –
17 | 5.49 | O=C1C=CC(=O)N1CCc1c[nH]c2ccccc12 | – | pIC50 [3]: 4.72
18 | 4.55 | O=C(O)C(Cc1c[nH]c2ccccc12)N1C(=O)C=CC1=O (configuration not stated) | – | –
19 | 5.09 | CCN(CC)CCNC(=O)c1ccc(NCCCCCCCCCCCCN2C(=O)c3ccccc3C2=O)cc1 | – | pIC50 [3]: 5.31
